Bridge positions count the residues as written; N and C are the ends. Ends that are not written are not given here. Peptide text beside a SMILES is read from it.
How the values were obtained:
[1] = system: serum calcium concentration
Method: Rats were divided into four groups of seven animals, and each group was assigned at random to a dose of standard or test solution. Low and high doses were chosen from the linear portion of the dose-response curve. For the salmon calcitonin standard, the values were 0.7 and 2.1 mcg. peptide/100 g. body weight (BW). This dose approximates 3 and 9 MU/100 g. BW. Peptides were given by subcutaneous injection (0.2 ml/100 g. BW) and blood was withdrawn 1 hour later for serum calcium determination. Sera are processed and analyzed within two hours of collection.

[2] = literature values; cited from earlier work

Row | Compound | hypocalcemic potency [2] | also measured
1 | CC(C)C[C@H](NC(=O)[C@H](CCCCN)NC(=O)CNC(=O)[C@H](CC(C)C)NC(=O)[C@@H](NC(=O)[C@@H]1CSSC[C@H](N)C(=O)N[C@@H](CO)C(=O)N[C@@H](CC(N)=O)C(=O)N[C@@H](CC(C)C)C(=O)N[C@@H](CO)C(=O)N[C@@H]([C@@H](C)O)C(=O)N1)C(C)C)C(=O)N[C@@H](CO)C(=O)N[C@@H](CCC(N)=O)C(=O)N[C@@H](CCC(=O)O)C(=O)N[C@@H](CC(C)C)C(=O)N[C@@H](Cc1c[nH]cn1)C(=O)N[C@@H](CCCCN)C(=O)N[C@@H](CC(C)C)C(=O)N[C@@H](CCC(N)=O)C(=O)N[C@H](C(=O)N[C@@H](Cc1ccc(O)cc1)C(=O)N1CCC[C@H]1C(N)=O)[C@@H](C)O [calcitonin-(1-23)-peptide amide, Calcitonin-(1-23)-peptide amide] (H-CSNLSTCVLGKLSQELHKLQTYP-NH2; disulfide 1-7) |  | biological potency ([1]; rat, in vivo, sc): 11.5 IU/mg
2 | CC(C)C[C@H](NC(=O)[C@H](CCCCN)NC(=O)CNC(=O)[C@H](CC(C)C)NC(=O)[C@@H](NC(=O)[C@@H]1CSSC[C@H](N)C(=O)N[C@@H](CO)C(=O)N[C@@H](CC(N)=O)C(=O)N[C@@H](CC(C)C)C(=O)N[C@@H](CO)C(=O)N[C@@H]([C@@H](C)O)C(=O)N1)C(C)C)C(=O)N[C@@H](CO)C(=O)N[C@@H](CCC(N)=O)C(=O)N[C@@H](CCC(=O)O)C(=O)N[C@@H](CC(C)C)C(=O)N[C@@H](Cc1c[nH]cn1)C(=O)N[C@@H](CCCCN)C(=O)N[C@@H](CC(C)C)C(=O)N[C@@H](CCC(N)=O)C(=O)N[C@H](C(=O)N[C@@H](Cc1ccc(O)cc1)C(=O)N1CCC[C@H]1C(=O)N[C@@H](CCCNC(=N)N)C(=O)N[C@H](C(=O)N[C@@H](CC(N)=O)C(=O)N[C@H](C(=O)NCC(=O)N[C@@H](CO)C(=O)NCC(=O)N[C@H](C(=O)N1CCC[C@H]1C(N)=O)[C@@H](C)O)[C@@H](C)O)[C@@H](C)O)[C@@H](C)O [standard salmon calcitonin, Salmon calcitonin] |  | potency of the standard, independently determined ([1]; standard salmon calcitonin used, independently determined): greater than 4,000 IU/mg
3 | (1,7-α-L-aminosuberic acid) eel calcitonin | about 3400 Iu/mg | 
4 | eel calcitonin (CSNLSTCVLGKLSQELHKLQTYPRTDVGAGTP-NH2; disulfide 1-7; ends not checked; UniProt P01262 1-32, looked up) [synthetic eel calcitonin, synthetic eel calcitonin of Monikawa et al] | around 4300 Iu/mg | 
